{"source": "paper PMC8000760", "about": "“Potential Effect of Pseudevernia furfuracea (L.) Zopf Extract and Metabolite Physodic Acid on Tumour Microenvironment Modulation in MCF-10A Cells” (Biomolecules, 2021)", "key": {"[1]": {"tested_on": "endothelial tube formation", "details": "cited from earlier work"}, "EMT process": {"tested_on": "EMT process", "details": "through decreasing the mRNA level of E-cadherin; cited from earlier work"}, "angiogenesis in vivo": {"tested_on": "angiogenesis in vivo", "set-up": "method as in PMID 22669534", "details": "chorioallantoic membrane assay and corneal angiogenesis assay; cited from earlier work"}, "MCF-10A cells": {"tested_on": "MCF-10A cells", "assay": "Flow cytometry cell cycle phase distribution", "assay_type": "cell-based, human", "details": "treatment alone (IC10 of PSE/Phy, or TGF-β 30 ng/mL)", "procedure": "The MCF-10A and BJ-5ta cells were seeded and cultivated for 24 h in a complete medium. One day after seeding, 30 ng/mL of TGF-β was added and cultivated for 7 days (d). TGF-β was added to induce epithelial–mesenchymal transition in tested cell lines. Lichen extract P. furfuracea (L.) Zopf and its metabolite physodic acid were added at time 0 h and then incubated for 24, 48 and 72 h for various analyses, as described in Figure 1.\nThe MCF-10A cells (1 × 10^4/well) were seeded in Petri dishes and stimulated with […] TGF-β for 7 days. […] After detaching, using Trypsin/EDTA, cells were harvested and pelleted by centrifugation at 1200 rpm for 5 min. Pellet was re-suspended in PBS and divided for a particular analysis. Cells were stained prior to analyses with E-Cadherin Mouse mAb (Alexa Fluor 488 conjugate) or N-cadherin Rabbit mAb (Alexa Fluor 647 conjugate) (Cell Signalling) for 15 min at RT in the dark. For the cell cycle analyses, cells were re-suspended in staining solution (final concentration 0.1% Triton X-100, 0.5 mg/mL ribonuclease A and 0.025 mg/mL propidium iodide (PI)), and incubated in the dark at RT for 30 min. All samples were analysed using a FACS Calibur flow cytometer (Becton Dickinson, San Jose, CA, USA). The IgG isotype control checking was performed for every used antibody."}, "HUVEC": {"tested_on": "HUVEC", "set-up": "method as in PMID 22669534", "details": "cited from earlier work"}, "[2]": {"tested_on": "N-cadherin, Snail, Twist, E-cadherin", "set-up": "method as in PMID 26371759", "details": "cited from earlier work"}}}
{"compound": "CCCCCC(=O)Cc1cc(O)cc(O)c1C(=O)Oc1cc(O)c(C(=O)O)c(CCCCC)c1", "note": "[olivetoric acid]", "values": [{"measurement": "endothelial tube formation", "setting": "[1]", "value": "inhibiting"}]}
{"compound": "CC(=O)c1c(O)c(C)c(O)c2c1OC1=CC(=O)C(C(C)=O)C(=O)C12C", "note": "(centres unmarked) [usnic acid]", "values": [{"measurement": "anti-angiogenic activity by inhibiting endothelial tube formation", "setting": "[1]", "value": "strong anti-angiogenic activity"}, {"measurement": "effect on the EMT process", "setting": "EMT process", "value": "inhibitory effect"}, {"measurement": "angiogenesis in vivo", "setting": "angiogenesis in vivo", "value": "inhibits"}]}
{"compound": "TGF-β", "values": [{"measurement": "G1 cell cycle phase distribution", "setting": "MCF-10A cells; 24 h", "value": "74.55 ± 1.59"}, {"measurement": "G2/M cell cycle phase distribution", "setting": "MCF-10A cells; 24 h", "value": "13.25 ± 2.49"}, {"measurement": "S cell cycle phase distribution", "setting": "MCF-10A cells; 24 h", "value": "11.15 ± 0.69"}, {"measurement": "Sub G0 cell cycle phase distribution", "setting": "MCF-10A cells; 24 h", "value": "1.07 ± 0.22"}, {"measurement": "G1 cell cycle phase distribution", "setting": "MCF-10A cells; 48 h", "value": "83.05 ± 2.74"}, {"measurement": "G2/M cell cycle phase distribution", "setting": "MCF-10A cells; 48 h", "value": "8.63 ± 1.69"}, {"measurement": "S cell cycle phase distribution", "setting": "MCF-10A cells; 48 h", "value": "7.39 ± 0.88"}, {"measurement": "Sub G0 cell cycle phase distribution", "setting": "MCF-10A cells; 48 h", "value": "0.94 ± 0.16"}, {"measurement": "G1 cell cycle phase distribution", "setting": "MCF-10A cells; 72 h", "value": "81.35 ± 0.37"}, {"measurement": "G2/M cell cycle phase distribution", "setting": "MCF-10A cells; 72 h", "value": "10.85 ± 0.45"}, {"measurement": "S cell cycle phase distribution", "setting": "MCF-10A cells; 72 h", "value": "6.61 ± 0.74"}, {"measurement": "Sub G0 cell cycle phase distribution", "setting": "MCF-10A cells; 72 h", "value": "1.22 ± 0.07"}]}
{"compound": "COC(=O)/C(=C1/OC(=O)C(c2ccccc2)=C1O)c1ccccc1", "note": "[vulpinic acid]", "values": [{"measurement": "anti-angiogenic activity by inhibiting endothelial tube formation", "setting": "[1]", "value": "strong anti-angiogenic activity"}]}
{"compound": "CC(=O)c1c(O)c(C)c(O)c2c1OC1=CC(=O)C(C(C)=O)C(=O)C12C", "note": "(stereo not drawn) [(+)- usnic acid]", "values": [{"measurement": "VEGF-induced HUVEC migration and tube formation", "setting": "HUVEC", "value": "inhibits"}]}
{"compound": "COC(=O)c1c(C)c2c(c(C)c1O)OC(=O)c1c(C)c(Cl)c(O)c(C=O)c1O2", "note": "[physciosporin]", "values": [{"measurement": "changes in E-cadherin levels", "setting": "[2]", "value": "not observed"}, {"measurement": "level of EMT-associated proteins N-cadherin, Snail and Twist", "setting": "[2]", "value": "decrease"}]}
